Where two headings read alike, the source gives them in different places.
Columns and labels:
[1] = Kamiya et al. 2002; read-out: cytotoxicity CC50; cited from earlier work
[2] = after MCC-478, phase I clinical trial, Chan et al. 2005; cited from earlier work
[3] = test system: DHBV; assay: animal or person; format: in vivo, sheldrakes; conditions: serum DHBV DNA; for inhibition in vivo at 0.5 mg/kg / inhibition in vivo at 1 mg/kg: Duck hepatitis B virus, po, 336 h; for inhibition in vivo at 0.5 mg/kg: 0.5 mg/kg intragastric once a day for 14 days; for inhibition in vivo at 1 mg/kg: 1.0 mg/kg intragastric once a day for 14 days
Procedure: The sheldrakes infected by vertical transmission and being positive in DHBV DNA detection were grouped randomly, 5/group. Water and different doses of the compound to be tested were intragastrically administrated, respectively, once a day, for 14 days. Venous blood samples were collected pre-dosing, at day 14 of dosing and at day 7 after drug withdrawal, the serum DHBV DNA content was measured using external standard TaqMan real-time fluorescence PCR method, and the inhibition ratio was calculated, as compared to the solvent group.

[4] = Evaluation of liver targeting property (active drug in liver and blood, HPLC-MS/MS); format: in vivo, Balb/C mice; conditions: intragastric, dose equimolar to fosfomycin 200 mg/kg, active drug (free phosphonic or phosphoric acid)
Excerpt: Instrument: Finnigan Co. USA, TSQ Quantum-type liquid chromatography-mass spectrometry (LC/MS/MS), consisting of Finnigan Surveyor LC pump. Surveyor AS automatic sampler, electrospray ionization source (ESI) and triple tandem mass spectrometer. The control software is X calibur 1.4, Lcquan 2.0 data processing system is used for mass spectrometry data analysis. The chromatography column is Discovery ODS column (250 mm×4.6 mm, 5 μm), C18 guard column (4 mm×3.0 mm), the mobile phase is methanol-water-formic acid (10-30:90-70:0.5, V/V/V), the flow rate is 0.7 ml/min; the sample amount is 20 μL; and the column temperature is room temperature.

[5] = test system: liver damage in mice caused by CCl4; format: in vivo, Kunmin mice; conditions: serum, CCl4 model, 0.2 mmol oral twice, 24 hours after second administration
Procedure: Kunmin mice (20 g) were grouped randomly (8/group). 0.2 mmol of a compound to be tested was orally administered; after 1 hour post-dosing, a 0.1% peanut oil solution of CCl4 was subcutaneously injected (10 mL/kg), to prepare a liver damage model; the normal saline was injected as a normal control group. After modeling for 12 hours, 0.2 mmol of the compound to be tested was orally administrated again. After 24 hours from the second administration, blood samples were collected to take serum specimen so as to determine ALT, AST.

[6] = test system: HBV; assay: microbe, parasite or virus in culture; format: cell-based; conditions: Hep G 2.2.15 cells, HBV DNA in supernate at day 10 post-dosing, read-out: IC50
Procedure: At day 10 post-dosing, 100 μl supernate was taken and the content of HBV DNA was measured by the method of Quantitative PCR to calculate IC50 value.

[7] = test system: liver damage in mice caused by D-aminogalactose; format: in vivo, Kunmin mice; conditions: serum, D-aminogalactose 750 mg/kg model, 0.2 mmol oral twice, 24 hours after second administration
Procedure: Kunmin mice (20 g) were grouped randomly (8/group). 0.2 mmol of a compound to be tested was orally administered; after 2 hours post-dosing, D-aminogalactose was intraperitoneally injected at a dose of 750 mg/kg to prepare a liver damage model, and the normal saline was subcutaneously injected as a normal control group. After modeling for 12 hours, 0.2 mmol of the compound to be tested was orally administrated again. After 24 hours from the second administration, blood samples were collected to take serum specimen so as to determine ALT, AST.

[8] = test system: Hep G 2.2.15 cells; assay: in vitro; format: cell-based; conditions: MTT, day 3 post-dosing
Procedure: (§1) Hep G 2.2.15 cells were inoculated in a 96-well plate (with cell number being 5.5×10^4) to continually cultivate for 3 days, new culture solutions containing different concentrations of drugs were added, and 3 wells were provided in parallel; at day 3 post-dosing, MTT was added until 7.5 mg/ml, and continued to cultivate for 2 hours, the supernate was discarded, isopropanol containing 10% […] was added, 120 μl/well, and 0.4 μl/well was further added.

[9] = in vitro; format: cell-based; conditions: human; Hep G 2.2.15 cells, MTT, day 3 post-dosing
Procedure: as §1

[10] = 25 mg/kg intragastric once a day for 14 days
[11] = 10 mg/kg intragastric once a day for 14 days
[12] = read-out: Inhibition ratio (%) Day 14 of dosing
[13] = read-out: Inhibition ratio (%) day 7 after drug withdrawal
[14] = Hepatitis B virus, HepG2.2.15, 240 h

| Compound | ALT [5] [U/L] | AST [5] [U/L] | IC50 [6] [nM] | ALT [7] [U/L] | AST [7] [U/L] | CC50 [8] [nM] | further results |
| --- | --- | --- | --- | --- | --- | --- | --- |
| COc1ccc(Sc2nc(N)nc3c2ncn3CCOCP(=O)(O)OCC(F)(F)F)cc1 [Compound 602074] | – | – | – | – | – | – | CC50 [1]: 548000 nM |
| COc1ccc(Sc2nc(N)nc3c2ncn3CCOCP(=O)(O)O)cc1 [Compound 602076] | – | – | – | – | – | – | blood concentration relative to that of the monoester 602074 [2]: one tenth |
| CC(C)OC(=O)[C@H](C)N[P@@](=O)(CO[C@H](C)Cn1cnc2c(N)ncnc21)Oc1ccc2c(c1)OCO2 [Compound I21-a] | 353 | 191 | 150 | 379 | 169 | – | Inhibition ratio (%) Day 14 of dosing [3, 10]: 70.8%; Inhibition ratio (%) day 7 after drug withdrawal [3, 10]: 25.0%; Cliver/Cblood ([4]; 1 h post-dosing): 8.45; Cliver/Cblood ([4]; 6 h post-dosing): 12.02 |
| CC(C)OC(=O)[C@H](C)N[P@](=O)(CO[C@H](C)Cn1cnc2c(N)ncnc21)Oc1ccc2c(c1)OCO2 [Compound I21-b] | 251 | 152 | 12 | 514 | 268 | – | Inhibition ratio (%) Day 14 of dosing [3, 10]: 82.3%; Inhibition ratio (%) day 7 after drug withdrawal [3, 10]: 39.2%; Cliver/Cblood ([4]; 1 h post-dosing): 9.15; Cliver/Cblood ([4]; 6 h post-dosing): 14.37 |
| CC(C)OC(=O)C(C)NP(=O)(OCCOCn1cnc2c(=O)[nH]c(N)nc21)Oc1ccc2c(c1)OCO2 (stereo not shown) [Compound I27] | 663 | 940 | 35 | 713 | 522 | > 200000 | Inhibition ratio (%) Day 14 of dosing [3, 11]: 80.6%; Inhibition ratio (%) day 7 after drug withdrawal [3, 11]: 10.5%; Cliver/Cblood ([4]; 1 h post-dosing): 11.75; Cliver/Cblood ([4]; 6 h post-dosing): 8.02 |
| CC(NP(=O)(OCCOCn1cnc2c(=O)[nH]c(N)nc21)Oc1ccc2c(c1)OCO2)C(=O)OC1CCCCC1 (stereo not shown) [Compound I28] | – | – | – | – | – | > 200000 | – |
| C=C1[C@H](CO[P@@](=O)(N[C@@H](C)C(=O)OC(C)C)Oc2ccc3c(c2)OCO3)[C@@H](O)C[C@@H]1n1cnc2c(=O)[nH]c(N)nc21 [Compound I38-b] | 162 | 387 | – | 217 | 493 | – | inhibition in vivo at 0.5 mg/kg [3, 12]: 96.4%; inhibition in vivo at 0.5 mg/kg [3, 13]: 63.4%; IC50 [6, 14]: 90 nM; CC50 [9]: > 200000 nM |
| COC(=O)C(C)NP(=O)(OCCOCn1cnc2c(=O)[nH]c(N)nc21)Oc1ccc2c(c1)OCO2 (stereo not shown) [Compound I41] | – | – | – | – | – | > 200000 | Inhibition ratio (%) Day 14 of dosing [3, 11]: 72.5%; Inhibition ratio (%) day 7 after drug withdrawal [3, 11]: 15.7% |
| CC(C)OC(=O)[C@H](C)N[P@](=O)(CO[C@H](C)Cn1cnc2c(N)ncnc21)Oc1ccccc1.O=C(O)/C=C/C(=O)O [GS-7340, 9-[(R)-2-[[(S)-[[(S)-1-(isopropoxycarbonyl)-ethyl]-amino]-phenoxylphosphonyl]-methoxyl]-propyl]-adenine fumarate, reference compound] | 2483 | 2645 | 71 | 1064 | 1320 | 94200 | – |
| C=C1[C@H](CO[P@@](=O)(N[C@@H](C)C(=O)OC(C)C)Oc2ccccc2)[C@@H](O)C[C@@H]1n1cnc2c(=O)[nH]c(N)nc21 [i-5, 2-amino-1,9-dihydro-9-[(1S,3R,4S)-4-hydroxyl-3-((S)—((S)-1-isopropoxycarbonylethylamino-phenoxy-phosphoryl)-oxymethyl)-2-methylenecyclopentyl]-6H-purin-6-one, reference compound] | 551 | 641 | – | 1512 | 1646 | – | inhibition in vivo at 1 mg/kg [3, 12]: 88.9%; inhibition in vivo at 1 mg/kg [3, 13]: 15.7%; IC50 [6, 14]: 12 nM; CC50 [9]: 193000 nM |
| (benzo[1,3]dioxolan-5-yl) [5-[2-amino-5-(2-methylpropyl)-thiazol-4-yl]-furan-2-yl]-phosphonate-(1-isopropoxycarbonylethylamino)-phosphonamide [Compound I43] | 507 | 280 | – | 256 | 517 | > 200000 | – |
